From patent US20220362249A1, “METHODS FOR TREATING […]” (PTC Therapeutics MP, Inc., priority 2019, published 2022)
Where two headings read alike, the source gives them in different places.

Key:
[1] = Food effect on administration of sepiapterin: plasma sepiapterin and BH4 concentrations, fasted vs fed; assay type: in vivo, human; details: sepiapterin 10 mg/kg oral; for concentration at 0 h / concentration at 0.5 h / concentration at 1 h / concentration at 2 h / concentration at 4 h / concentration at 8 h / concentration at 12 h / concentration at 24 h: human, oral, 10 mg/kg; for concentration at 0 h: 0 h (predose)
Procedure: Method: Subjects received 2 oral doses of sepiapterin (10 mg/kg) separated by 1 week in a fasted and fed state. Subjects were fed a standard high-fat (approximately 50 percent of total caloric content of the meal) and high-calorie (approximately 800 to 1000 calories) meal starting 30 minutes prior to receiving their second oral dose of sepiapterin on Day 8.
Sampling for PK analysis occurred predose on Days 1 and 8 (within 30 minutes before dosing) and 0.5 hr, 1 hr, 2 hr, 4 hr, 8 hr, 12 hr, and 24 hr after the doses on Days 1 and 8. The blood concentrations of sepiapterin and BH4 were analyzed by MNG Labs.

[2] = Pharmacokinetic analysis of multiple doses of sepiapterin (once daily for 7 days, fed subjects); assay type: in vivo, human
Text: Methods: Three cohorts of eight fed subjects each were randomized to receive once-daily sepiapterin or placebo for 7 days in a 6:2 ratio. A sentinel dose strategy was also used for administration of the highest sepiapterin dose.

[3] = plasma, fasted, read-out: Concentration in Plasma, Maximum
[4] = plasma, fasted, read-out: Concentration in Plasma, Mean
[5] = plasma, fasted, read-out: Concentration in Plasma, Median
[6] = plasma, fasted, read-out: Concentration in Plasma, Minimum
[7] = plasma, fed (high-fat meal), read-out: Concentration in Plasma, Maximum
[8] = plasma, fed (high-fat meal), read-out: Concentration in Plasma, Mean
[9] = plasma, fed (high-fat meal), read-out: Concentration in Plasma, Median
[10] = plasma, fed (high-fat meal), read-out: Concentration in Plasma, Minimum

## C[C@H](O)C(=O)C1=Nc2c(nc(N)[nH]c2=O)NC1 [sepiapterin, Sepiapterin]
[1]; [3]
  concentration at 0 h: 0 nM
  concentration at 0.5 h: 7.23 nM
  concentration at 1 h: 10.2 nM
  concentration at 2 h: 6.65 nM
  concentration at 4 h: 3.93 nM
  concentration at 8 h: 0 nM
  concentration at 12 h: 0 nM
  concentration at 24 h: 0 nM
[1]; [4]
  concentration at 0 h: 0 nM
  concentration at 0.5 h: 2.85 nM
  concentration at 1 h: 5.43 nM
  concentration at 2 h: 4.63 nM
  concentration at 4 h: 1.88 nM
  concentration at 8 h: 0 nM
  concentration at 12 h: 0 nM
  concentration at 24 h: 0 nM
[1]; [5]
  concentration at 0 h: 0 nM
  concentration at 0.5 h: 2.32 nM
  concentration at 1 h: 4.82 nM
  concentration at 2 h: 4.71 nM
  concentration at 4 h: 2.37 nM
  concentration at 8 h: 0 nM
  concentration at 12 h: 0 nM
  concentration at 24 h: 0 nM
[1]; [6]
  concentration at 0 h: 0 nM
  concentration at 0.5 h: 0 nM
  concentration at 1 h: 3.15 nM
  concentration at 2 h: 2.52 nM
  concentration at 4 h: 0 nM
  concentration at 8 h: 0 nM
  concentration at 12 h: 0 nM
  concentration at 24 h: 0 nM
[1]; [7]
  concentration at 0 h: 0 nM
  concentration at 0.5 h: 3.22 nM
  concentration at 1 h: 4.57 nM
  concentration at 2 h: 5.92 nM
  concentration at 4 h: 5.56 nM
  concentration at 8 h: 2.19 nM
  concentration at 12 h: 0 nM
  concentration at 24 h: 0 nM
[1]; [8]
  concentration at 0 h: 0 nM
  concentration at 0.5 h: 0.63 nM
  concentration at 1 h: 2.38 nM
  concentration at 2 h: 2.96 nM
  concentration at 4 h: 2.96 nM
  concentration at 8 h: 0.18 nM
  concentration at 12 h: 0 nM
  concentration at 24 h: 0 nM
[1]; [9]
  concentration at 0 h: 0 nM
  concentration at 0.5 h: 0 nM
  concentration at 1 h: 2.42 nM
  concentration at 2 h: 2.91 nM
  concentration at 4 h: 2.5 nM
  concentration at 8 h: 0 nM
  concentration at 12 h: 0 nM
  concentration at 24 h: 0 nM
[1]; [10]
  concentration at 0 h: 0 nM
  concentration at 0.5 h: 0 nM
  concentration at 1 h: 0 nM
  concentration at 2 h: 0 nM
  concentration at 4 h: 0 nM
  concentration at 8 h: 0 nM
  concentration at 12 h: 0 nM
  concentration at 24 h: 0 nM
[1]; plasma
  Geometric mean ratio (fasted/fed, 90% CI) for AUClast: 1.29 (0.84 to 2.00)
  Geometric mean ratio (fasted/fed, 90% CI) for Cmax: 1.57 (1.21 to 2.0)
[1]
  Cmax in the plasma, fed compared to fasted subjects (in words): much lower
[2]; Day 1, sepiapterin 20 mg/kg once daily, fed
  Cmax: 1.2 ng/mL
[2]; Day 7, sepiapterin 60 mg/kg once daily, fed
  AUC0-24: 23 ng·h/mL
[2]; once-daily sepiapterin for 7 days
  Drug accumulation after 1 and 7 days of treatment (in words): no drug accumulation
